These results are taken from patent US20050020613A1, “Sustained release opioid formulations and method of use” (priority 2002, published 2005).

The format of the first assay is in vivo. The note with it: dose equianalgesic to a 15 mg dose of hydrocodone.
As for `COc1ccc2c3c1O[C@H]1[C@@H](O)C=C[C@H]4[C@@H](C2)N(C)CC[C@@]341` [Codeine], the “Equianalgesic Doses of Opioids: Calculated Dose” value is reported as 90.0 mg.

Turning to `COc1ccc2c3c1OC1C(=O)CC[C@H]4[C@@H](C2)N(C)CC[C@]314` (stereo partly shown) [Hydrocodone, 4,5-epoxy-3-methoxy-17-methylmorphinan-6-one], the “Equianalgesic Doses of Opioids: Calculated Dose” value is reported as 15.0 mg.

In the case of `CCC(=O)C(CC(C)N(C)C)(c1ccccc1)c1ccccc1` (stereo not shown) [Methadone], the “Equianalgesic Doses of Opioids: Calculated Dose” value was 9.0 mg.

Turning to `COc1ccc2c3c1OC1C(=O)CC[C@@]4(O)[C@@H](C2)N(C)CC[C@]314` (stereo partly shown) [Oxycodone, 4,5-epoxy-14-hydroxy-3-methoxy-17-methylmorphinan-6-one], the “Equianalgesic Doses of Opioids: Calculated Dose” value is 13.5 mg.

As for `CN1CC[C@]23CCCC[C@H]2[C@H]1Cc1ccc(O)cc13` [Levorphanol], the “Equianalgesic Doses of Opioids: Calculated Dose” value is 1.8 mg.

Turning to Meperidine, the “Equianalgesic Doses of Opioids: Calculated Dose” value is 135.0 mg.

Staying with this assay, now noted: in vivo.
Turning to `CN1CC[C@]23c4c5ccc(O)c4O[C@H]2[C@@H](O)C=C[C@H]3[C@H]1C5` [Morphine], the “Equianalgesic Doses of Opioids: Calculated Dose” value is recorded as 27.0 mg.
